Source: patent US9949478B2, “Herbicidal combination with herbicidal active fatty acids and an ALS-inhibitor” (BAYER CROPSCIENCE AKTIENGESELLSCHAFT, priority 2013, dated 2018)
Several values for one entry are separate records, joined by “and”; a condition that tells them apart may be missing. Equal entries are not always repeated.

Legend:
Experiment in all cases: Post-emergence test
Assay type in all cases: in vivo
[1] = tested on: Ranunculus repens; conditions: 34 days
Source text: (§1) The following formulations of the active compounds involved were used: • fatty acids 120 EC (fatty acid mixture of two fatty acids having hydrocarbon chains of 8 and 10 carbon atoms in a ratio of 60 to 40; for the preparation see EP application number 12177824.5; title: “Emulsifiable Concentrate Formulation with Herbicidal Active Fatty Acids); application date: Jul. 25, 2012). • foramsulfuron 50 WG (water dispersible granule) standard granule formulation without adjuvants • iodosulfuron 10 WG (water dispersible granule) • (commercial formulation Destiny, approved inter alia in Australia—Bayer CropScience) • mesosulfuron 75 WG (water dispersible granule) standard granule formulation without adjuvants • thiencarbazone 70 WG (water dispersible granule) standard granule formulation without adjuvants • flazasulfuron 25 WG (water dispersible granule) • (commercial formulation Chikara, approved inter alia in Germany—product licence holder ISK Biosciences) • amidosulfuron 75 WG (water dispersible granule) • (commercial formulation Hoestar, approved inter alia in Germany—Bayer CropScience) • ethoxysulfuron 60 WG (water dispersible granule) • (commercial formulation SunRice, approved inter alia in Italy—Bayer CropScience)
(§2) The active compound concentrations required for the tests were prepared by dilution with water. The tested active compound combinations were mixed shortly before their biological examination.
(§3) In the case of all herbicide combinations according to the invention, for most of the test plants synergistic actions are observed (see Tables 1 to 25).

[2] = tested on: Plantago lanceolata; conditions: 34 days
Source text: as §1, §2, §3

[3] = tested on: Trifolium repens
Source text: as §1, §2, §3

[4] = tested on: Stellaria media; conditions: 34 days
Source text: as §1, §2, §3

[5] = tested on: Chenopodium album
Source text: as §1, §2, §3

[6] = tested on: Achillea millefolium; conditions: 34 days
Source text: as §1, §2, §3

[7] = tested on: Bellis perennis; conditions: 34 days
Source text: as §1, §2, §3

[8] = tested on: Lotus corniculatus; conditions: 34 days
Source text: as §1, §2, §3

[9] = tested on: Plantago major
Source text: as §1, §2, §3

[10] = tested on: Taraxacum officinale
Source text: as §1, §2, §3

[11] = tested on: Rumex acetosa; conditions: 34 days
Source text: as §1, §2, §3

[12] = tested on: Festuca ovina
Source text: as §1, §2, §3

[13] = tested on: Poa annua; conditions: 48 days
Source text: as §1, §2, §3

[14] = 37.5 g of active compound/ha, 34 days
[15] = 30 g of active compound/ha, 34 days
[16] = 60 g of active compound/ha, 34 days
[17] = 15 g of active compound/ha, 48 days
[18] = 45 g of active compound/ha, 34 days
[19] = 45 g of active compound/ha, 48 days
[20] = 60 g of active compound/ha, 48 days
[21] = 20 g of active compound/ha, 34 days
[22] = 1 g of active compound/ha, 48 days
[23] = 1.25 g of active compound/ha, 34 days
[24] = 1.25 g of active compound/ha, 48 days
[25] = 2.5 g of active compound/ha, 48 days
[26] = 10 g of active compound/ha, 48 days
[27] = 15 g of active compound/ha, 34 days

Structure (SMILES): COc1cc(OC)nc(NC(=O)NS(=O)(=O)c2ncccc2C(F)(F)F)n1 [Flazasulfuron, 1-(4,6-dimethoxypyrimidin-2-yl)-3-(3-trifluoromethyl-2-pyridylsulfonyl)urea]
- herbicidal effect [%] ([1]; 37.5 g of active compound/ha): 99%
- herbicidal effect [%] ([2]; 37.5 g of active compound/ha): 7%
- herbicidal effect [%] [3, 14]: 63%
- herbicidal effect [%] ([4]; 37.5 g of active compound/ha): 95%
- herbicidal effect [%] [5, 14]: 70%
- herbicidal effect [%] ([6]; 37.5 g of active compound/ha): 67%
- herbicidal effect [%] ([7]; 37.5 g of active compound/ha): 52%
- herbicidal effect [%] ([8]; 37.5 g of active compound/ha): 23%
- herbicidal effect [%] [9, 14]: 75%
- herbicidal effect [%] [10, 14]: 87%
- herbicidal effect [%] ([11]; 37.5 g of active compound/ha): 52%
- herbicidal effect [%] [12, 14]: 68%

Structure (SMILES): COc1cc(OC)nc(NC(=O)NS(=O)(=O)N(C)S(C)(=O)=O)n1 [Amidosulfuron, 3-(4,6-dimethoxypyrimidin-2-yl)-1-(N-methyl-N-methylsulfonylaminosulfonyl)urea]
- herbicidal effect [%] ([1]; 30 g of active compound/ha): 96%
- herbicidal effect [%] ([2]; 30 g of active compound/ha): 13%
- herbicidal effect [%] [3, 15]: 13%
- herbicidal effect [%] ([4]; 30 g of active compound/ha): 10%
- herbicidal effect [%] [5, 15]: 27%
- herbicidal effect [%] ([6]; 30 g of active compound/ha): 18%
- herbicidal effect [%] ([7]; 30 g of active compound/ha): 33%
- herbicidal effect [%] ([8]; 30 g of active compound/ha): 0%
- herbicidal effect [%] [9, 15]: 88%
- herbicidal effect [%] [10, 15]: 88%
- herbicidal effect [%] ([11]; 30 g of active compound/ha): 28%
- herbicidal effect [%] [12, 15]: 0%

Structure (SMILES): CCOc1ccccc1OS(=O)(=O)NC(=O)Nc1nc(OC)cc(OC)n1 [Ethoxysulfuron, 2-ethoxyphenyl[(4,6-dimethoxypyrimidin-2-yl)carbamoyl]sulfamate]
- herbicidal effect [%] ([1]; 60 g of active compound/ha): 92%
- herbicidal effect [%] ([2]; 60 g of active compound/ha): 5%
- herbicidal effect [%] [3, 16]: 47%
- herbicidal effect [%] ([4]; 60 g of active compound/ha): 5%
- herbicidal effect [%] [5, 16]: 5%
- herbicidal effect [%] ([6]; 60 g of active compound/ha): 13%
- herbicidal effect [%] ([7]; 60 g of active compound/ha): 10%
- herbicidal effect [%] ([8]; 60 g of active compound/ha): 0%
- herbicidal effect [%] [9, 16]: 0%
- herbicidal effect [%] [10, 16]: 38%
- herbicidal effect [%] ([11]; 60 g of active compound/ha): 25%
- herbicidal effect [%] [12, 16]: 0%

Structure (SMILES): COc1cc(OC)nc(NC(=O)NS(=O)(=O)c2cc(NC=O)ccc2C(=O)N(C)C)n1 [Foramsulfuron, 1-(4,6-dimethoxypyrimidin-2yl)-3-(2-dimethylcarbamoyl-5-formamidophenylsulfonyl)urea]
- herbicidal effect [%] ([1]; 45 g of active compound/ha): 95%
- herbicidal effect [%] ([2]; 45 g of active compound/ha): 8%
- herbicidal effect [%] [3, 17]: 18.3%
- herbicidal effect [%] [3, 18]: 20%
- herbicidal effect [%] [3, 19]: 53%
- herbicidal effect [%] [3, 20]: 60%
- herbicidal effect [%] ([4]; 45 g of active compound/ha): 18%
- herbicidal effect [%] [5, 17]: 0%
- herbicidal effect [%] [5, 18]: 8%
- herbicidal effect [%] [5, 19]: 13%
- herbicidal effect [%] [5, 20]: 13.3% and 13%
- herbicidal effect [%] ([6]; 45 g of active compound/ha): 17%
- herbicidal effect [%] ([7]; 45 g of active compound/ha): 13%
- herbicidal effect [%] ([8]; 45 g of active compound/ha): 0%
- herbicidal effect [%] [9, 17]: 0%
- herbicidal effect [%] [9, 18]: 47%
- herbicidal effect [%] [9, 19]: 23%
- herbicidal effect [%] [9, 20]: 33.3% and 33%
- herbicidal effect [%] ([13]; 15 g of active compound/ha): 18.3%
- herbicidal effect [%] ([13]; 45 g of active compound/ha): 48%
- herbicidal effect [%] ([13]; 60 g of active compound/ha): 73.3% and 73%
- herbicidal effect [%] [10, 17]: 45%
- herbicidal effect [%] [10, 18]: 55%
- herbicidal effect [%] [10, 19]: 70%
- herbicidal effect [%] [10, 20]: 75%
- herbicidal effect [%] ([11]; 45 g of active compound/ha): 11%
- herbicidal effect [%] [12, 17]: 6.7%
- herbicidal effect [%] [12, 18]: 35%
- herbicidal effect [%] [12, 19]: 53%
- herbicidal effect [%] [12, 20]: 58.3% and 58%

Structure (SMILES): COC(=O)c1csc(C)c1S(=O)(=O)NC(=O)n1nc(OC)n(C)c1=O [Thiencarbazone-methyl, methyl 4-[(4,5-dihydro-3-methoxy-4-methyl-5-oxo-1H-1,2,4-triazol-1yl)carbonylsulfamoyl]-5-methylthiophene-3-carboxylate]
- herbicidal effect [%] ([1]; 20 g of active compound/ha): 97%
- herbicidal effect [%] ([2]; 20 g of active compound/ha): 67%
- herbicidal effect [%] [3, 21]: 55%
- herbicidal effect [%] ([4]; 20 g of active compound/ha): 53%
- herbicidal effect [%] [5, 21]: 23%
- herbicidal effect [%] ([6]; 20 g of active compound/ha): 25%
- herbicidal effect [%] ([7]; 20 g of active compound/ha): 28%
- herbicidal effect [%] ([8]; 20 g of active compound/ha): 2%
- herbicidal effect [%] [9, 21]: 87%
- herbicidal effect [%] [10, 21]: 38%
- herbicidal effect [%] ([11]; 20 g of active compound/ha): 52%
- herbicidal effect [%] [12, 21]: 42%

Structure (SMILES): COc1nc(C)nc(NC(=O)NS(=O)(=O)c2cc(I)ccc2C(=O)[O-])n1.[Na+] [Iodosulfuron-methyl sodium salt, 4-iodo-2-[(4-methoxy-6-methyl-1,3,5-triazin-2-yl)carbamoylsulfamoyl]benzoate, sodium salt]
- herbicidal effect [%] ([1]; 1.25 g of active compound/ha): 73%
- herbicidal effect [%] ([2]; 1.25 g of active compound/ha): 3%
- herbicidal effect [%] [3, 22]: 18.3%
- herbicidal effect [%] [3, 23]: 10%
- herbicidal effect [%] [3, 24]: 32%
- herbicidal effect [%] [3, 25]: 45%
- herbicidal effect [%] [3, 26]: 80%
- herbicidal effect [%] ([4]; 1.25 g of active compound/ha): 22%
- herbicidal effect [%] [5, 22]: 0%
- herbicidal effect [%] [5, 23]: 13%
- herbicidal effect [%] [5, 24]: 0%
- herbicidal effect [%] [5, 25]: 10%
- herbicidal effect [%] [5, 26]: 40%
- herbicidal effect [%] ([6]; 1.25 g of active compound/ha): 5%
- herbicidal effect [%] ([7]; 1.25 g of active compound/ha): 10%
- herbicidal effect [%] ([8]; 1.25 g of active compound/ha): 0%
- herbicidal effect [%] [9, 22]: 0%
- herbicidal effect [%] [9, 23]: 22%
- herbicidal effect [%] [9, 24]: 3%
- herbicidal effect [%] [9, 25]: 30%
- herbicidal effect [%] [9, 26]: 53.3%
- herbicidal effect [%] ([13]; 1 g of active compound/ha): 0%
- herbicidal effect [%] ([13]; 1.25 g of active compound/ha): 0%
- herbicidal effect [%] ([13]; 2.5 g of active compound/ha): 0%
- herbicidal effect [%] ([13]; 10 g of active compound/ha): 0%
- herbicidal effect [%] [10, 22]: 18.3%
- herbicidal effect [%] [10, 23]: 50%
- herbicidal effect [%] [10, 24]: 18%
- herbicidal effect [%] [10, 25]: 42%
- herbicidal effect [%] [10, 26]: 85%
- herbicidal effect [%] ([11]; 1.25 g of active compound/ha): 12%
- herbicidal effect [%] [12, 22]: 0%
- herbicidal effect [%] [12, 23]: 0%
- herbicidal effect [%] [12, 24]: 0%
- herbicidal effect [%] [12, 25]: 0%
- herbicidal effect [%] [12, 26]: 6.7%

Structure (SMILES): COC(=O)c1ccc(CNS(C)(=O)=O)cc1S(=O)(=O)NC(=O)Nc1nc(OC)cc(OC)n1 [Mesosulfuron-methyl, methyl 2-[(4,6-dimethoxypyrimidin-2-ylcarbamoyl)sulfamoyl]-a-(methanesulfonamido)-p-toluate]
- herbicidal effect [%] ([1]; 15 g of active compound/ha): 80%
- herbicidal effect [%] ([2]; 15 g of active compound/ha): 0%
- herbicidal effect [%] [3, 27]: 2%
- herbicidal effect [%] ([4]; 15 g of active compound/ha): 2%
- herbicidal effect [%] [5, 27]: 3%
- herbicidal effect [%] ([6]; 15 g of active compound/ha): 4%
- herbicidal effect [%] ([7]; 15 g of active compound/ha): 5%
- herbicidal effect [%] ([8]; 15 g of active compound/ha): 0%
- herbicidal effect [%] [9, 27]: 0%
- herbicidal effect [%] [10, 27]: 42%
- herbicidal effect [%] ([11]; 15 g of active compound/ha): 2%
- herbicidal effect [%] [12, 27]: 0%
